# Results from US9034862B2, “Compositions and methods for the treatment of cancer” (priority 2011, dated 2015).
# Key:
# calf thymus DNA = experiment: Ethidium bromide DNA-binding competition, Scatchard analysis; parameters: key: competitive (type A); non-competitive (type D); both (type B); No inhibition of ethidium binding is labeled as type C
# Text: Using this approach, it is possible to determine whether the inhibition of ethidium binding is competitive (type A), non-competitive (type D), or both (type B). No inhibition of ethidium binding is labeled as type C.
# [1] = system: GLuc expression in A549 cells; experiment: Transcription assay, globally platinated pGLuc, A549; format: cell-based, human; settings: for transcription level (normalized against unplatinated plasmid): Pt/DNA ratio of […] for phenanthriplatin
# Experimental: Transfection of transcription probes into A549 and HT29 cells with the pGLuc plasmid was carried out using liposomal transfecting agents. Determination of expression levels was tested by Luciferase assays monitored by a luminometer (J. Am. Chem. Soc. 2010, 132, 7429-7435). A549 cells were plated in 96-well plates at 2,000 cells/well and HT29 cells were plated in 96-well plates at 6,000 cells/well. After 48 h incubation (at ˜30% confluence), cells were transfected with 50 ng of platinated plasmids in 25 μL Opti-MEM and 0.125 μL Lipofectamine 2000, and subsequently 50 μL of antibiotics-free DMEM supplemented with 10% FBS. After 2 h, the cells were washed with medium and 100 μL of fresh medium was added. The experiment was carried out in quadruplicate.
# GLuc activity was monitored using a luminescence plate reader (Synergy 2, BioTek, Winooski, Vt., USA). A 10 μL volume of medium at different time points (12, 24, 36, 48, 60 h) was transferred into opaque white 96-well plates, and 25 μL of GLuc assay solution (10 μM colelenterazine (NanoLight Technologies, Pinetop, Ariz., USA) in 2.5 mM acidified methanol (100 mM HCl), buffer (10 mM Tris-HCl pH 7.8, 1 mM EDTA, 0.6 M NaCl)) was added by the automatic injector of the instrument.
# In another embodiment, A549 or HT29 cells were transfected using the platinated transcription probes, and transcription levels were investigated by determining GLuc expression as measured by […] following addition of coelenterazine as a substrate for the exported enzyme. The emission intensities were normalized against unplatinated plasmids as a control. Transcription profiles were obtained by plotting normalized levels of GLuc expression against platination levels (Pt/plasmid ratio) at five different time points. […] An increase in D0 value at different time points represents restoration of transcription.
# [2] = system: Gaussia luciferase expression in U2OS cells; settings: ratio of recovery of transcription level vs. time
# Experimental: (§1) Vector Construction and Preparation. […] Preparation of Platinated Insertion Strand. […] The suspension was centrifuged. To a solution of 0.2 mM 16-mer oligonucleotide 5′-[…]*[…] The reaction mixture was incubated in the dark at 37° C. overnight. The reaction was stopped when the solution was frozen. […] After purification, the platinated DNA solution was dialyzed against H2O and lyophilized. […] The insertion strand was further analyzed for nucleotide composition by nuclease S1 digestion to confirm the platination site following a protocol published previously (Table 13) (e.g., see J Am Chem Soc 2007, 129, 6370-6371). The platinated and unplatinated DNA strands (40 μM) were phosphorylated by T4 PNK (0.67 U/μL) at 37° C. for 3 h, followed by a phenol/chloroform/isoamyl alcohol extraction to remove the enzyme. The phosphorylated DNA strands were ethanol precipitated and stored in −80° C. at a concentration of 100 pmol/μL.
# (§2) Briefly, a 600 μg quantity of pGLuc8temG plasmid was digested with 30 U Nt.BbvCI at 37° C. for 1 h. The reaction mixture was heated at 80° C. for 20 min to deactivate the enzyme, followed by a phenol/chloroform/isoamyl alcohol extraction to remove the enzyme. The mixture was dialyzed against H2O overnight at 4° C. The plasmid was further digested with 30 U Nt.BspQI at 50° C. for 1 h, and the enzyme was heat-deactivated and removed by a phenol/chloroform/isoamyl alcohol extraction. The nicked plasmid was mixed with 1,000 equiv of complementary DNA strand 5′-[…] (SEQ ID NO: 2) in a buffer of 10 mM Tris-HCl, 2 mM MgCl2, 0.4 M NaCl, pH 7.4, heated at 80° C. for 5 min, and subsequently cooled at 4° C. for 5 min for 10 cycles. […] A 120 μg quantity of the gapped plasmid was annealed with 100 equiv of the insertion strand in a buffer of 10 mM Tris-HCl, 2 mM MgCl2, 0.4 M NaCl, pH 7.4 from 90° C. to 4° C. at −1° C./min in a thermocycler. The platinated plasmid was dialyzed against H2O at 4° C. overnight and further purified by treatment with 30 U BsmBI at 55° C. for 1 h. The closed-circular form of plasmid was purified and concentrated by isopycnic centrifugation, followed by n-butanol extraction and ethanol precipitation. The plasmids were quantitated by a Quant-iT™ PicoGreen® dsDNA Kit from Invitrogen (Carlsbad, Calif.), and stored in −80° C. in TE buffer (10 mM Tris-HCl, 2 mM EDTA, pH 7.4).
# (§3) Transfection of platinated plasmids into mammalian cells was carried out as reported previously (e.g., see ChemBioChem 2011, 12, 1115-1123). A549 and HeLa cells were plated at 2,000 cells per well in 96-well plates. NTera-2 and HT29 cells were plated at 4,000 cells per well in 96-well plates. MCF7 and U2OS cells were plated at 5,000 cells per well in 96-well plates. The cells were allowed to attach and grow for 48 h, and then washed with antibiotic-free culture media right before transfection. Transient transfection of the cells was carried out using Lipofectamine 2000. Briefly, 10 ng of site specifically platinated probes was included in each well. The experiments were performed in quadruplicate. The probes were diluted in OptiMEM, and Lipofectamine was diluted in OptiMEM. The two solutions were combined and incubated for 20 min. The transfection mixture was delivered into each well, and the cells were incubated for 2 h. The cells were washed with antibiotic-free culture media to remove the transfection mixture. A 100 μL volume of fresh, antibiotic-free media was added into each well to start the transcription assay. […]
# [3] = system: Gaussia luciferase expression in A549 cells; settings: ratio of recovery of transcription level vs. time
# Experimental: as §1, §2, §3
# [4] = system: Gaussia luciferase expression in MCF7 cells; settings: ratio of recovery of transcription level vs. time
# Experimental: as §1, §2, §3
# [5] = system: Gaussia luciferase expression in HT29 cells; settings: ratio of recovery of transcription level vs. time
# Experimental: as §1, §2, §3
# [6] = system: Gaussia luciferase expression in HeLa cells; settings: ratio of recovery of transcription level vs. time
# Experimental: as §1, §2, §3
substance,measurement,setting,value
cis-[Pt(NH3)2(phenanthridine)Cl]NO3 [phenanthriplatin],type of inhibition of ethidium binding (Scatchard),calf thymus DNA; 12-h incubation period,type D
same,type of inhibition of ethidium binding (Scatchard),calf thymus DNA; 1 min incubation period,type C
same,transcription level (normalized against unplatinated plasmid),"[1]; A549, 12 h",19.5%
same,D0 (Pt lesions per plasmid required to reduce transcription levels to 37% of control),"[1]; A549, 12 h after transfection",14.2 Pt/plasmid
same,D0 (Pt lesions per plasmid required to reduce transcription levels to 37% of control),"[1]; A549, 24 h after transfection",17.3 Pt/plasmid
same,D0 (Pt lesions per plasmid required to reduce transcription levels to 37% of control),"[1]; A549, 36 h after transfection",22.2 Pt/plasmid
same,D0 (Pt lesions per plasmid required to reduce transcription levels to 37% of control),"[1]; A549, 48 h after transfection",31.6 Pt/plasmid
same,transcription level (normalized against unplatinated plasmid),"[1]; A549, 60 h",51.1%
same,D0 (Pt lesions per plasmid required to reduce transcription levels to 37% of control),"[1]; A549, 60 h after transfection",39.8 Pt/plasmid
same,recovery rate of transcription (S),[2],0.805
same,recovery rate of transcription (S),[3],0.263
same,recovery rate of transcription (S),[4],0.337
same,recovery rate of transcription (S),[5],0.884
same,recovery rate of transcription (S),[6],0.434
